Results from patent US11083735B2, “Methods for treating sleep disorders, sleep disturbances, and related symptoms using aminosterol compositions” (Enterin, Inc., priority 2017, dated 2021).
Several values for one entry are separate records, joined by “and”; a condition that tells them apart may be missing. Equal entries are not always repeated.

How the values were obtained:
[1] = Duration of the aminosterol-induced response after a single oral dose; assay type: in vivo, human; conditions: single 200 mg oral dose
Excerpt: The invention is also based on the discovery of unexpected and unprecedented activity of orally or nasally administered squalamine and related aminosterols (e.g., aminosterol 1436). The activity relates to stimulating a sequence of events within the human GI tract with therapeutic value. With respect to this activity, the sequence of events stimulated by an aminosterol such as squalamine or aminosterol 1436 involves the induction of an intestinal secretory response followed by a period of “small intestinal quieting,” and the subsequent passage of a normally formed bowel movement. These events are best explained as a consequence of the stimulation of a heretofore unknown physiological gastrointestinal response, in this invention shown to be controlled or initiated by an effective oral dose of an aminosterol such as squalamine or the related aminosterol, 1436 (Aminosterol-Induced GI Response). The activity relates to stimulating the neural connections between the enteric nervous system and the brain with therapeutic value, which can thereby impact sleeping disorders, sleeping disturbances, or related symptoms, as described herein. With respect to this activity, the sequence of events stimulated by an aminosterol involves the entrainment of the circadian clock, the suprachiasmatic nucleus, and an improvement in the quality of sleep. […]

[2] = tested on: patient with sleeping disorder; assay: Example 2: patient with sleeping disorder and constipation, oral squalamine, sleep diary and I-button; assay type: in vivo, human
Description: The patient had very significant delay in sleep onset, fragmented sleep, thrashing of arms and legs (RBD) and daytime somnolence. On polysomnography, they had apneic spells up to 17 seconds in duration with an oxygen desaturation as low as 93%. The patient slept no more than 3-4 hours, awakened 3-4 times, and each awakening lasted 30-60 minutes. Medications included clonazepam and laxatives.
Clonazepam and laxatives were discontinued and they were started on 100 mg of squalamine every other day at bedtime. This regimen had no effect on their sleep or constipation. […] They were then switched to 150 mg daily taken in the morning.
The patient's skin temperature was also monitored for fluctuations at the wrist using a temperature sensor (I-button) mounted on a wrist-band. Skin temperature at the wrist increases from about 30° C. during the day to 36° C. at night in normal individuals. This diurnal variation of skin temperature correlates well with sleep-wake cycles. When it reaches 34° C., subjects fall asleep; during the night, if it falls below 34° C., subjects awaken. During the day, skin temperature is below 30° C. and subjects remain awake.
Once the patient's Circadian rhythm was restored, the patient started sleeping better at night and stopped falling asleep during the day.

[3] = tested on: patients with PD and constipation; assay: Phase 2 trial Stage 2: adverse events; conditions: for Common adverse events by dose: Dizziness: lightheadedness included
Description: In Stage 2, 34 patients were evaluated. […] This dose was then maintained (“fixed dose”) for an additional 3-5 days. After the “fixed dose”, these patients were randomly assigned to either continued treatment at that dose or to a matching placebo, for an additional 4-6 days prior to a 2-week wash-out.
A second cohort of 19 patients received squalamine (ENT-01) escalating from 100 mg/day to a maximum of 250 mg/day without subsequent randomization to squalamine (ENT-01) or placebo. Criteria for dose selection and efficacy were identical to those used in the previous cohort.
Adverse events were coded using the current version of MedDRA. Severity of AEs were assessed by investigators according to CTCAE (v4.03): Grade 1 is labeled as Mild, Grade 2 as Moderate, and Grade 3 and above as Severe. […] The number (percentage) of subjects who experienced an AE during escalation and fixed dosing periods were summarized by dose level and overall for each stage. The denominator for calculating the percentages were based on the number of subjects ever exposed to each dose and overall.

[4] = Preclinical oral studies in rats (bioavailability, portal blood, tolerability)
[5] = 150 mg daily taken in the morning

SMILES: CC(C)[C@@H](CC[C@@H](C)[C@H]1CC[C@H]2[C@@H]3[C@H](O)C[C@H]4C[C@@H](NCCCNCCCCN)CC[C@]4(C)[C@H]3CC[C@]12C)OS(=O)(=O)O [squalamine]
- duration of the aminosterol-induced response [1]: about 4 days
- effect on sleep or constipation ([2]; 100 mg every other day at bedtime): no effect
- time to fall asleep (I-button) ([2]; 100 mg given at night, FIG. 8A): 2.5 h
- total sleep per night (I-button) ([2]; 100 mg given at night, FIG. 8A): 3 h
- Delay ([2]; 125 mg switch, days 114-118): 45 min
- Fragments awake ([2]; 125 mg switch, days 114-118): 60 min
- Total hrs sleep ([2]; 125 mg switch, days 114-118): 7.5 h and 6.5 h and 8.0 h
- total hours of sleep (I-button) ([2]; 150 mg): 4 to 5 h
- Total hrs sleep ([2]; 150 mg daily am dose, Mean row covers all on-treatment days (pre mean 6.2)): 6.0 h
- Fragments awake ([2]; 150 mg daily am dose, Mean row covers all on-treatment days (pre mean 90)): 120 min
- effect on sleep or constipation ([2]; 150 mg daily at bedtime): without effect
- arms and legs thrashing in the night [2, 5]: stopped thrashing
- bowels [2, 5]: regularized almost immediately
- delay in sleep onset (I-button) ([2]; 150 mg, FIG. 8C): 1 h
- delay in sleep onset (I-button) ([2]; 150 mg, FIG. 8D): 0.5 h
- Sleep efficiency ([2]; On treatment (Pre-treatment 74)): 82%
- Fragments awake during night ([2]; On treatment (Pre-treatment 90)): 56 min
- Delay in falling asleep ([2]; On treatment (Pre-treatment 146)): 60 min
- diurnal rhythm (I-button, periodogram, FIG. 12) ([2]; several months into treatment): clearly been restored

SMILES: CC(C)[C@@H](CC[C@@H](C)[C@H]1CC[C@H]2[C@@H]3[C@H](O)C[C@H]4C[C@@H](NCCCNCCCCN)CC[C@]4(C)[C@H]3CC[C@]12C)OS(=O)(=O)O (single isomer, unassigned; ent-01) [ENT-01]
- AEs confined to the GI tract ([3]; Stage 2): 63%
- Diarrhea, patients ([3]; Stage 2, 15/34): 44%
- nausea, patients ([3]; Stage 2, 18/34): 52.9%
- Abdominal pain, Mild ([3]; Stage 2, 34 dosed): 4(11.7) n, %
- Abdominal pain, Moderate ([3]; Stage 2, 34 dosed): 2(5.8) n, %
- Blood in urine, Mild ([3]; Stage 2, 34 dosed): 0 n, %
- Blood in urine, Moderate ([3]; Stage 2, 34 dosed): 0 n, %
- Diarrhea, Mild ([3]; Stage 2, 34 dosed): 12(35) n, %
- Diarrhea, Moderate ([3]; Stage 2, 34 dosed): 2(5.8) n, %
- Diarrhea, Severe ([3]; Stage 2, 34 dosed): 1(2.9) n, %
- Difficulty falling asleep, Mild ([3]; Stage 2, 34 dosed): 1(3) n, %
- Difficulty falling asleep, Moderate ([3]; Stage 2, 34 dosed): 0 n, %
- Dizziness, Mild ([3]; Stage 2, 34 dosed): 7(20.5) n, %
- Dizziness, Moderate ([3]; Stage 2, 34 dosed): 1(2.9) n, %
- Flatulence, Mild ([3]; Stage 2, 34 dosed): 1(3) n, %
- Flatulence, Moderate ([3]; Stage 2, 34 dosed): 0 n, %
- Headache, Mild ([3]; Stage 2, 34 dosed): 3(8.8) n, %
- Headache, Moderate ([3]; Stage 2, 34 dosed): 0 n, %
- Increased urinary frequency, Mild ([3]; Stage 2, 34 dosed): 2(5.8) n, %
- Increased urinary frequency, Moderate ([3]; Stage 2, 34 dosed): 0 n, %
- Loss of appetite, Mild ([3]; Stage 2, 34 dosed): 0 n, %
- Loss of appetite, Moderate ([3]; Stage 2, 34 dosed): 0 n, %
- Nausea, Mild ([3]; Stage 2, 34 dosed): 18(52) n, %
- Nausea, Moderate ([3]; Stage 2, 34 dosed): 1(2.9) n, %
- Skin lesions-rash, Mild ([3]; Stage 2, 34 dosed): 3(8.8) n, %
- Skin lesions-rash, Moderate ([3]; Stage 2, 34 dosed): 0 n, %
- Urinary retention, Mild ([3]; Stage 2, 34 dosed): 1(3) n, %
- Urinary retention, Moderate ([3]; Stage 2, 34 dosed): 0 n, %
- Vomiting, Mild ([3]; Stage 2, 34 dosed): 2(5.8) n, %
- Vomiting, Moderate ([3]; Stage 2, 34 dosed): 0 n, %
- Worsening acid reflux, Mild ([3]; Stage 2, 34 dosed): 4(11.7) n, %
- Worsening acid reflux, Moderate ([3]; Stage 2, 34 dosed): 0 n, %
- Worsening hemorrhoid, Mild ([3]; Stage 2, 34 dosed): 1(3) n, %
- Worsening hemorrhoid, Moderate ([3]; Stage 2, 34 dosed): 0 n, %
- Common adverse events by dose: Diarrhea ([3]; Stage 2, dose 75 mg): 7
- Common adverse events by dose: Nausea ([3]; Stage 2, dose 75 mg): 3
- Common adverse events by dose: Dizziness ([3]; Stage 2, dose 75 mg): 8
- Common adverse events by dose: Diarrhea ([3]; Stage 2, dose 100 mg): 10
- Common adverse events by dose: Nausea ([3]; Stage 2, dose 100 mg): 12
- Common adverse events by dose: Dizziness ([3]; Stage 2, dose 100 mg): 7
- Common adverse events by dose: Diarrhea ([3]; Stage 2, dose 125 mg): 3
- Common adverse events by dose: Nausea ([3]; Stage 2, dose 125 mg): 4
- Common adverse events by dose: Dizziness ([3]; Stage 2, dose 125 mg): 8
- Common adverse events by dose: Diarrhea ([3]; Stage 2, dose 150 mg): 2
- Common adverse events by dose: Nausea ([3]; Stage 2, dose 150 mg): 11
- Common adverse events by dose: Dizziness ([3]; Stage 2, dose 150 mg): 2
- Common adverse events by dose: Diarrhea ([3]; Stage 2, dose 175 mg): 1
- Common adverse events by dose: Nausea ([3]; Stage 2, dose 175 mg): 12
- Common adverse events by dose: Dizziness ([3]; Stage 2, dose 175 mg): 0
- Common adverse events by dose: Diarrhea ([3]; Stage 2, dose 200 mg): 2
- Common adverse events by dose: Nausea ([3]; Stage 2, dose 200 mg): 6
- Common adverse events by dose: Diarrhea ([3]; Stage 2, dose 225 mg): 3
- Common adverse events by dose: Nausea ([3]; Stage 2, dose 225 mg): 1
- Common adverse events by dose: Diarrhea ([3]; Stage 2, dose 250 mg): 2
- Lower GI bleed, Severe ([3]; Stage 2, Unrelated to ENT-01 (diverticulosis, polyp, aspirin, Plavix, naproxen)): 1(2.5) n, %
- absorption from the intestine ([4]; portal blood concentrations following oral dosing of radioactive ENT-01 to rats): low
- tolerability ([4]; rats): well tolerated
- oral bioavailability ([4]; rats, preclinical studies): about 0.1%
